# According to patent US20260315434A1, “USE OF GUAIACOL SESQUITERPENE LACTONE DERIVATIVES” (NANJING UNIVERSITY OF CHINESE MEDICINE, priority 2023, published 2026):
# What was measured:
# CCR2 mRNA = experiment: Inhibition of CCR2 mRNA level in MDSCs; assay type: cell-based; conditions: Mus musculus, 2 h, read-out: Suppression Rate (inhibition of CCR2 mRNA levels)
# [1] = 8 h; cited from earlier work
# [2] = target: farnesyltransferase (FTase); conditions: cited from earlier work
# [3] = Safety evaluation, mouse activity status (30 days oral); assay type: in vivo, C57BL/6 mice; conditions: 500, 1000 mg/kg oral
# Source text: (§1) The Normal group received an equal volume of solvent (saline).
# [4] = system: IgE and inflammatory markers of AD mice; experiment: MC903-induced atopic dermatitis, oral administration: serum IgE and ear mRNA of inflammatory markers; assay type: in vivo, mouse; parameters: scale not given here
# Experimental: Except for the Normal group, all other groups underwent AD modeling: 20 μL of MC903 solution (also known as calcipotriol, purchased from Shanghai Yuanye Biotechnology Co., Ltd., used for inducing atopic models) was applied to each mouse's ears once daily for 14 consecutive days to induce the atopic dermatitis model. […] Measure ear thickness changes every 2 days using an electronic caliper before modeling and after treatment initiation.
# [5] = Safety evaluation, mouse body weight (30 days oral); assay type: in vivo, C57BL/6 mice; parameters: Mouse body weight: unit not given here; conditions: for Mouse body weight: oral gavage once daily
# Source text: as §1
# [6] = Safety evaluation, mouse survival rate (30 days oral); assay type: in vivo, C57BL/6 mice; conditions: for survival at 720 h: mouse, in vivo, female, oral
# Source text: as §1
# serum TC and TG = experiment: HFD-induced atherosclerosis, serum total cholesterol and triglyceride; assay type: in vivo, APOE−/− mice; parameters: Serum TC / Serum TG: unit not given here; conditions: for Serum TC / Serum TG: 8 weeks
# Experimental: (§2) Experimental animals: C57BL and APOE^−/− mice, male, 8 weeks old, purchased from GemPharmatech LLC. Production license number: SCXK(Su)2023-0009. […] They were acclimated for 7 days before use in experiments.
# (§3) Normal group (C57BL), model group (HFD/APOE^−/−), positive control drug VTX3232 (10 mg/kg) group, compound 103 (0.3, 1, 3, 10 and 30 mg/kg) group, with 6 mice per group. Oral administration was performed continuously for 8 weeks.
# (§4) Allow blood to stand at room temperature for 2 hours, then centrifuge at 3000 rpm for 20 minutes. Aspirate the serum, aliquot it, and store at −70° C. for future use. After blood collection, euthanize mice by cervical dislocation. Open the abdominal cavity, remove heart and aorta. […] Store remaining tissues at −80° C. for future use.
# Serum Total Cholesterol (TC) and Triglyceride (TG) Assay: For each sample, 10 μL of serum was used for […]. Samples were added sequentially strictly according to the kit instructions, incubated at 37° C., and measured for absorbance values using an enzyme-linked immunosorbent assay (ELISA) reader. The concentration levels of each indicator were calculated based on the standard curve.
# [7] = system: inflammatory factors Il1b, Il6 and Hscrp in serum; experiment: HFD-induced atherosclerosis, serum Il1b, Il6 and Hscrp; assay type: in vivo, APOE−/− mice; parameters: Serum Il1b / Serum Il6 / Serum Hscrp: unit not given here; conditions: for Serum Hscrp / Serum Il1b / Serum Il6: 8 weeks
# Experimental: as §2, §3, §4
# Serum Total Il1, Il6 and Hscrp Assay: For each sample, 10 μL of serum was used for […]. Samples were added sequentially strictly according to the kit instructions, incubated at 37° C., and measured for absorbance values using an enzyme-linked immunosorbent assay (ELISA) reader. The concentration levels of each indicator were calculated based on the standard curve.
structure (smiles),measurement,setting,value
"C=C1C(=O)O[C@@H]2[C@H]3C(C)=CC[C@@]34O[C@@]4(C)CC[C@@H]12 [Arg, Arglabin, reference compound]",inhibition at 1 µM,CCR2 mRNA,22.3%
same,inhibition at 10 µM,CCR2 mRNA,69.7%
same,degradation rate in gastric fluid,[1],50%
same,IC50 for inhibiting H-Ras protein farnesylation,[2],only at the micromolar level
CN(C)C[C@@H]1C(=O)O[C@H]2[C@H]1CC[C@@]1(C)C[C@]13CC[C@@](C)(O)[C@H]23 [Compound 20],activity status after each administration,[3],relatively reduced activity and lethargy
same,time to recovery to normal activity,[3],1 to 2 h
same,"coat luster, behavioral activity, or mental state vs. Normal group",[3]; 30 days,no significant differences
same,"I14 mRNA expression, ear",[4]; 0.1 mg/kg oral,2.77 ± 0.16
same,"I113 mRNA expression, ear",[4]; 0.1 mg/kg oral,2.04 ± 0.20
same,"I131 mRNA expression, ear",[4]; 0.1 mg/kg oral,2.64 ± 0.22
same,"TSLP mRNA expression, ear",[4]; 0.1 mg/kg oral,3.38 ± 0.51
same,"Tnf mRNA expression, ear",[4]; 0.1 mg/kg oral,4.04 ± 0.50
same,"I14 mRNA expression, ear",[4]; 1 mg/kg oral,2.65 ± 0.22
same,"I113 mRNA expression, ear",[4]; 1 mg/kg oral,1.82 ± 0.21
same,"TSLP mRNA expression, ear",[4]; 1 mg/kg oral,2.36 ± 0.32
same,"Tnf mRNA expression, ear",[4]; 1 mg/kg oral,2.63 ± 0.55
same,"I14 mRNA expression, ear",[4]; 10 mg/kg oral,2.09 ± 0.26
same,"I113 mRNA expression, ear",[4]; 10 mg/kg oral,1.66 ± 0.30
same,"I131 mRNA expression, ear",[4]; 10 mg/kg oral,1.68 ± 0.13
same,"TSLP mRNA expression, ear",[4]; 10 mg/kg oral,1.33 ± 0.13
same,"Tnf mRNA expression, ear",[4]; 10 mg/kg oral,1.22 ± 0.18
same,body weight,"[5]; 500, 1000 mg/kg oral, 30 days, P>0.05",no significant effect
same,Mouse body weight,"[5]; female, 500 mg/kg, day 1",100.00 ± 0.00
same,Mouse body weight,"[5]; female, 500 mg/kg, day 5",100.41 ± 0.43
same,Mouse body weight,"[5]; female, 500 mg/kg, day 10",99.01 ± 1.34
same,Mouse body weight,"[5]; female, 500 mg/kg, day 15",100.03 ± 0.95
same,Mouse body weight,"[5]; female, 500 mg/kg, day 20",100.52 ± 0.74
same,Mouse body weight,"[5]; female, 500 mg/kg, day 25",99.81 ± 1.72
same,Mouse body weight,"[5]; female, 500 mg/kg, day 30",99.79 ± 2.55
same,Mouse body weight,"[5]; female, 1000 mg/kg, day 1",100.00±0.00
same,Mouse body weight,"[5]; female, 1000 mg/kg, day 5",101.96 ± 0.55
same,Mouse body weight,"[5]; female, 1000 mg/kg, day 10",101.80 ± 2.02
same,Mouse body weight,"[5]; female, 1000 mg/kg, day 15",99.77 ± 2.60
same,Mouse body weight,"[5]; female, 1000 mg/kg, day 20",101.04 ± 2.13
same,Mouse body weight,"[5]; female, 1000 mg/kg, day 25",99.06 ± 3.56
same,Mouse body weight,"[5]; female, 1000 mg/kg, day 30",100.67 ± 0.91
same,Mouse body weight,"[5]; male, 500 mg/kg, day 1",100.00 ± 0.00
same,Mouse body weight,"[5]; male, 500 mg/kg, day 5",100.31 ± 0.89
same,Mouse body weight,"[5]; male, 500 mg/kg, day 10",101.51 ± 4.00
same,Mouse body weight,"[5]; male, 500 mg/kg, day 15",99.27 ± 2.11
same,Mouse body weight,"[5]; male, 500 mg/kg, day 20",101.29 ± 0.40
same,Mouse body weight,"[5]; male, 500 mg/kg, day 25",98.93 ± 0.60
same,Mouse body weight,"[5]; male, 500 mg/kg, day 30",100.10 ± 1.08
same,Mouse body weight,"[5]; male, 1000 mg/kg, day 1",100.00 ± 0.00
same,Mouse body weight,"[5]; male, 1000 mg/kg, day 5",101.48 ± 1.30
same,Mouse body weight,"[5]; male, 1000 mg/kg, day 10",101.22 ± 0.84
same,Mouse body weight,"[5]; male, 1000 mg/kg, day 15",100.47 ± 1.28
same,Mouse body weight,"[5]; male, 1000 mg/kg, day 20",100.15 ± 2.76
same,Mouse body weight,"[5]; male, 1000 mg/kg, day 25",98.35 ± 1.14
same,Mouse body weight,"[5]; male, 1000 mg/kg, day 30",100.71 ± 0.53
same,survival rate,[6]; 500 and 1000 mg/kg oral,no significant effect
same,survival at 720 h,[6]; 500 mg/kg,100%
same,survival at 720 h,[6]; 1000 mg/kg,100%
CC1=C2CC[C@@](C)(OC(=O)N3CCCC3)[C@@H]2[C@H]2OC(=O)[C@@H](CN3CCCC3)[C@@H]2CC1 [Compound 103],Serum TC,"serum TC and TG; 0.3 mg/kg, oral",18.86 ± 1.44
same,Serum TG,"serum TC and TG; 0.3 mg/kg, oral",2.69 ± 0.86
same,Serum TC,"serum TC and TG; 1 mg/kg, oral",18.71 ± 1.45
same,Serum TG,"serum TC and TG; 1 mg/kg, oral",2.87 ± 0.42
same,Serum TC,"serum TC and TG; 3 mg/kg, oral",17.44 ± 1.83
same,Serum TG,"serum TC and TG; 3 mg/kg, oral",2.56 ± 0.93
same,Serum TC,"serum TC and TG; 10 mg/kg, oral",17.75 ± 1.62
same,Serum TG,"serum TC and TG; 10 mg/kg, oral",3.01 ± 0.89
same,Serum TC,serum TC and TG; 30 mg/kg oral,17.65 ± 1.35
same,Serum TG,serum TC and TG; 30 mg/kg oral,2.91 ± 0.59
same,serum TC and TG levels compared with the model group,"serum TC and TG; 0.3, 1, 3, 10, 30 mg/kg oral",no significant changes
same,Serum Hscrp,"[7]; 0.3 mg/kg, oral",9.67 ± 1.25
same,Serum Il1b,"[7]; 0.3 mg/kg, oral",277.35 ± 176.70
same,Serum Il6,"[7]; 0.3 mg/kg, oral",95.42 ± 26.76
same,Serum Hscrp,"[7]; 1 mg/kg, oral",7.25 ± 0.77
same,Serum Il1b,"[7]; 1 mg/kg, oral",255.38 ± 185.47
same,Serum Il6,"[7]; 1 mg/kg, oral",90.32 ± 8.01
same,Serum Hscrp,"[7]; 3 mg/kg, oral",6.67 ± 0.46
same,Serum Il1b,"[7]; 3 mg/kg, oral",173.42 ± 132.43
same,Serum Il6,"[7]; 3 mg/kg, oral",82.19 ± 4.83
same,Serum Hscrp,"[7]; 10 mg/kg, oral",5.80 ± 0.41
same,Serum Il1b,"[7]; 10 mg/kg, oral",77.91 ± 41.08
same,Serum Il6,"[7]; 10 mg/kg, oral",50.08 ± 9.76
same,Serum Hscrp,[7]; 30 mg/kg oral,4.88 ± 0.63
same,Serum Il1b,[7]; 30 mg/kg oral,62.93 ± 23.79
same,Serum Il6,[7]; 30 mg/kg oral,34.82 ± 20.80
same,"serum Il1b, Il6 and Hscrp levels compared with the model group","[7]; 0.3, 1, 3, 10, 30 mg/kg oral",markedly lower
